Assay results: the NIST ThermoML archive (doi:10.1021/je800616p)
± gives the expanded uncertainty stated by the source.

Assay: mn = molality of the nth substance listed, in mol/kg
Conditions: 101 kPa, Liquid; for viscosity: Capillary tube (Ostwald / Ubbelohde) method; for mass density: Vibrating tube method

NC(=O)c1ccccc1O [2-hydroxybenzamide] + CO
Conditions | mass density [kg/m3] | viscosity [mPa·s]
293.15 K, m1 = 0.0095 | 792.015 ± 0.14 | 0.597 ± 0.0071
293.15 K, m1 = 0.0126 | 792.215 ± 0.13 | 0.5976 ± 0.0071
293.15 K, m1 = 0.0158 | 792.352 ± 0.13 | 0.5981 ± 0.0071
293.15 K, m1 = 0.019 | 792.555 ± 0.13 | 0.5987 ± 0.0071
293.15 K, m1 = 0.0221 | 792.688 ± 0.12 | 0.5993 ± 0.0071
293.15 K, m1 = 0.0253 | 792.801 ± 0.12 | 0.5997 ± 0.0071
293.15 K, m1 = 0.0317 | 792.965 ± 0.12 | 0.6008 ± 0.0071
298.15 K, m1 = 0.0095 | 787.285 ± 0.14 | 0.5471 ± 0.0069
298.15 K, m1 = 0.0126 | 787.479 ± 0.13 | 0.5475 ± 0.0069
298.15 K, m1 = 0.0158 | 787.615 ± 0.13 | 0.548 ± 0.0069
298.15 K, m1 = 0.019 | 787.819 ± 0.13 | 0.5485 ± 0.0069
298.15 K, m1 = 0.0222 | 787.921 ± 0.12 | 0.549 ± 0.0069
298.15 K, m1 = 0.0253 | 788.019 ± 0.12 | 0.5495 ± 0.0069
298.15 K, m1 = 0.0317 | 788.218 ± 0.12 | 0.5503 ± 0.0069
303.15 K, m1 = 0.0095 | 782.541 ± 0.14 | 0.5003 ± 0.0068
303.15 K, m1 = 0.0127 | 782.725 ± 0.13 | 0.5005 ± 0.0068
303.15 K, m1 = 0.0159 | 782.859 ± 0.13 | 0.5007 ± 0.0068
303.15 K, m1 = 0.0191 | 783.029 ± 0.13 | 0.5009 ± 0.0068
303.15 K, m1 = 0.0223 | 783.149 ± 0.13 | 0.5012 ± 0.0068
303.15 K, m1 = 0.0255 | 783.261 ± 0.13 | 0.5015 ± 0.0068
303.15 K, m1 = 0.0319 | 783.449 ± 0.12 | 0.5019 ± 0.0068
308.15 K, m1 = 0.0096 | 777.775 ± 0.14 | 0.4852 ± 0.0068
308.15 K, m1 = 0.0128 | 777.951 ± 0.13 | 0.4853 ± 0.03
308.15 K, m1 = 0.016 | 778.085 ± 0.13 | 0.4855 ± 0.03
308.15 K, m1 = 0.0192 | 778.255 ± 0.13 | 0.4857 ± 0.03
308.15 K, m1 = 0.0224 | 778.368 ± 0.13 | 0.4859 ± 0.03
308.15 K, m1 = 0.0256 | 778.495 ± 0.13 | 0.4862 ± 0.03
308.15 K, m1 = 0.0321 | 778.659 ± 0.13 | 0.4866 ± 0.03
310.15 K, m1 = 0.0097 | 775.881 ± 0.21 | 0.4602 ± 0.0067
310.15 K, m1 = 0.0129 | 776.055 ± 0.13 | 0.4603 ± 0.0067
310.15 K, m1 = 0.0161 | 776.195 ± 0.13 | 0.4604 ± 0.0067
310.15 K, m1 = 0.0193 | 776.355 ± 0.14 | 0.4607 ± 0.0067
310.15 K, m1 = 0.0218 | 776.449 ± 0.13 | 0.4608 ± 0.0067
310.15 K, m1 = 0.0258 | 776.585 ± 0.12 | 0.4609 ± 0.0067
310.15 K, m1 = 0.0323 | 776.765 ± 0.18 | 0.4612 ± 0.0067
313.15 K, m1 = 0.0097 | 775.744 ± 5 | 0.4502 ± 0.0067
313.15 K, m1 = 0.013 | 775.898 ± 5 | 0.4503 ± 0.0067
313.15 K, m1 = 0.0162 | 776.045 ± 5 | 0.4504 ± 0.0067
313.15 K, m1 = 0.0194 | 776.165 ± 5 | 0.4506 ± 0.0067
313.15 K, m1 = 0.0227 | 776.285 ± 5 | 0.4508 ± 0.0067
313.15 K, m1 = 0.0259 | 776.375 ± 5 | 0.4509 ± 0.0067
313.15 K, m1 = 0.0325 | 776.558 ± 5 | 0.4511 ± 0.0067
